Experimental data: the CheMixHub viscosity set
± gives the uncertainty stated by the source.

Test: xn = mol fraction of the nth substance listed

`COC(=O)CCCCC(=O)OC` + CCC(C)=O showed a viscosity (308.15 K, 100 kPa, x1 = 0.2002) of 0.5865 ± 0.0081 mPa·s, a viscosity (318.15 K, 100 kPa, x1 = 0.3002) of 0.6465 ± 0.0083 mPa·s and a viscosity (323.15 K, 100 kPa, x1 = 0.4004) of 0.7425 ± 0.0086 mPa·s.
For `C1CCCC1` + CCC(C)O, the viscosity (298.15 K, 101 kPa, x1 = 0.0967) was 2.238 ± 0.1 mPa·s, the viscosity (298.15 K, 101 kPa, x1 = 0.1932) was 1.702 ± 0.08 mPa·s and the viscosity (298.15 K, 101 kPa, x1 = 0.2298) was 1.578 ± 0.075 mPa·s. The viscosity (298.15 K, 101 kPa, x1 = 0.2524) was 1.454 ± 0.069 mPa·s, the viscosity (298.15 K, 101 kPa, x1 = 0.3078) was 1.253 ± 0.061 mPa·s and the viscosity (298.15 K, 101 kPa, x1 = 0.3627) was 1.081 ± 0.053 mPa·s. The viscosity (298.15 K, 101 kPa, x1 = 0.4215) was 0.936 ± 0.047 mPa·s, the viscosity (298.15 K, 101 kPa, x1 = 0.5078) was 0.7825 ± 0.04 mPa·s and the viscosity (298.15 K, 101 kPa, x1 = 0.5772) was 0.6742 ± 0.035 mPa·s. It also gave a viscosity (298.15 K, 101 kPa, x1 = 0.7238) of 0.5339 ± 0.029 mPa·s, a viscosity (298.15 K, 101 kPa, x1 = 0.8256) of 0.4728 ± 0.027 mPa·s and a viscosity (298.15 K, 101 kPa, x1 = 0.9298) of 0.4297 ± 0.025 mPa·s. The viscosity (308.15 K, 101 kPa, x1 = 0.0075) was 2.095 ± 0.098 mPa·s, the viscosity (308.15 K, 101 kPa, x1 = 0.047) was 1.917 ± 0.091 mPa·s and the viscosity (308.15 K, 101 kPa, x1 = 0.0598) was 1.7 ± 0.081 mPa·s. The viscosity (308.15 K, 101 kPa, x1 = 0.0917) was 1.552 ± 0.075 mPa·s, the viscosity (308.15 K, 101 kPa, x1 = 0.107) was 1.509 ± 0.073 mPa·s and the viscosity (308.15 K, 101 kPa, x1 = 0.2217) was 1.298 ± 0.063 mPa·s. The viscosity (308.15 K, 101 kPa, x1 = 0.2626) was 1.177 ± 0.057 mPa·s, the viscosity (308.15 K, 101 kPa, x1 = 0.3099) was 1.049 ± 0.052 mPa·s and the viscosity (308.15 K, 101 kPa, x1 = 0.3653) was 0.8998 ± 0.045 mPa·s. It also gave a viscosity (308.15 K, 101 kPa, x1 = 0.4219) of 0.8068 ± 0.041 mPa·s, a viscosity (308.15 K, 101 kPa, x1 = 0.496) of 0.6842 ± 0.036 mPa·s and a viscosity (308.15 K, 101 kPa, x1 = 0.5716) of 0.5943 ± 0.032 mPa·s. For the same compound, the viscosity (308.15 K, 101 kPa, x1 = 0.6554) was 0.5084 ± 0.028 mPa·s, the viscosity (308.15 K, 101 kPa, x1 = 0.7457) was 0.4481 ± 0.026 mPa·s and the viscosity (308.15 K, 101 kPa, x1 = 0.845) was 0.4249 ± 0.025 mPa·s. It also gave a viscosity (308.15 K, 101 kPa, x1 = 0.9255) of 0.3819 ± 0.023 mPa·s and a viscosity (308.15 K, 101 kPa, x1 = 0.9753) of 0.3779 ± 0.023 mPa·s.
`CN1CCCC1=O` + CCC(C)O showed a viscosity (293.15 K, 101.3 kPa, x2 = 0.1049) of 1.815 ± 0.021 mPa·s, a viscosity (313.15 K, 101.3 kPa, x2 = 0.4019) of 1.285 ± 0.015 mPa·s and a viscosity (313.15 K, 101.3 kPa, x2 = 0.5003) of 1.285 ± 0.015 mPa·s.
Work on `CCCCC(CC)C(=O)OCC(COC(=O)C(CC)CCCC)(COC(=O)C(CC)CCCC)COC(=O)C(CC)CCCC` (stereo unspecified) + CCCCC(=O)OCC(COC(=O)CCCC)(COC(=O)CCCC)COC(=O)CCCC yielded a viscosity (313.15 K, 100 kPa, x1 = 0.6911) of 32.3 ± 2.1 mPa·s.
`OCc1ccccc1` + CCCCCC showed a viscosity (303.15 K, 101.3 kPa, x1 = 0.0101) of 0.303 ± 0.025 mPa·s, a viscosity (303.15 K, 101.3 kPa, x2 = 0.0312) of 4.044 ± 0.23 mPa·s and a viscosity (303.15 K, 101.3 kPa, x2 = 0.0645) of 3.832 ± 0.22 mPa·s. The viscosity (303.15 K, 101.3 kPa, x2 = 0.0976) was 3.35 ± 0.19 mPa·s, the viscosity (303.15 K, 101.3 kPa, x2 = 0.1313) was 3.119 ± 0.18 mPa·s and the viscosity (303.15 K, 101.3 kPa, x2 = 0.1653) was 2.649 ± 0.15 mPa·s. The viscosity (303.15 K, 101.3 kPa, x2 = 0.2056) was 2.328 ± 0.14 mPa·s, the viscosity (303.15 K, 101.3 kPa, x2 = 0.255) was 1.972 ± 0.12 mPa·s and the viscosity (303.15 K, 101.3 kPa, x2 = 0.8792) was 0.364 ± 0.028 mPa·s. For the same compound, the viscosity (303.15 K, 101.3 kPa, x2 = 0.955) was 0.326 ± 0.026 mPa·s, the viscosity (303.15 K, 101.3 kPa, x2 = 0.9699) was 0.32 ± 0.026 mPa·s and the viscosity (303.15 K, 101.3 kPa, x2 = 0.9799) was 0.312 ± 0.025 mPa·s. It also gave a viscosity (313.15 K, 101.3 kPa, x1 = 0.0101) of 0.284 ± 0.024 mPa·s, a viscosity (313.15 K, 101.3 kPa, x2 = 0.0312) of 3.013 ± 0.17 mPa·s and a viscosity (313.15 K, 101.3 kPa, x2 = 0.0645) of 2.754 ± 0.16 mPa·s. For the same compound, the viscosity (313.15 K, 101.3 kPa, x2 = 0.0976) was 2.394 ± 0.14 mPa·s, the viscosity (313.15 K, 101.3 kPa, x2 = 0.1313) was 2.256 ± 0.13 mPa·s and the viscosity (313.15 K, 101.3 kPa, x2 = 0.1653) was 2.004 ± 0.12 mPa·s. The viscosity (313.15 K, 101.3 kPa, x2 = 0.2056) was 1.827 ± 0.11 mPa·s, the viscosity (313.15 K, 101.3 kPa, x2 = 0.255) was 1.615 ± 0.098 mPa·s and the viscosity (313.15 K, 101.3 kPa, x2 = 0.8792) was 0.335 ± 0.027 mPa·s. The viscosity (313.15 K, 101.3 kPa, x2 = 0.955) was 0.302 ± 0.025 mPa·s, the viscosity (313.15 K, 101.3 kPa, x2 = 0.9699) was 0.3 ± 0.025 mPa·s and the viscosity (313.15 K, 101.3 kPa, x2 = 0.9799) was 0.292 ± 0.024 mPa·s. For the same compound, the viscosity (323.15 K, 101.3 kPa, x1 = 0.0101) was 0.254 ± 0.022 mPa·s, the viscosity (323.15 K, 101.3 kPa, x2 = 0.0312) was 2.36 ± 0.14 mPa·s and the viscosity (323.15 K, 101.3 kPa, x2 = 0.0645) was 2.173 ± 0.13 mPa·s. For the same compound, the viscosity (323.15 K, 101.3 kPa, x2 = 0.0976) was 1.974 ± 0.12 mPa·s, the viscosity (323.15 K, 101.3 kPa, x2 = 0.1313) was 1.79 ± 0.11 mPa·s and the viscosity (323.15 K, 101.3 kPa, x2 = 0.1653) was 1.616 ± 0.098 mPa·s. It also gave a viscosity (323.15 K, 101.3 kPa, x2 = 0.2056) of 1.455 ± 0.089 mPa·s, a viscosity (323.15 K, 101.3 kPa, x2 = 0.255) of 1.327 ± 0.082 mPa·s and a viscosity (323.15 K, 101.3 kPa, x2 = 0.8792) of 0.307 ± 0.025 mPa·s. It also gave a viscosity (323.15 K, 101.3 kPa, x2 = 0.955) of 0.268 ± 0.023 mPa·s, a viscosity (323.15 K, 101.3 kPa, x2 = 0.9699) of 0.262 ± 0.023 mPa·s and a viscosity (323.15 K, 101.3 kPa, x2 = 0.9799) of 0.258 ± 0.022 mPa·s.
With `CCCCC(CC)C(=O)OCC(COC(=O)C(CC)CCCC)(COC(=O)C(CC)CCCC)COC(=O)C(CC)CCCC` (stereo unspecified) + CCCCCCC(=O)OCC(COC(=O)CCCCCC)(COC(=O)CCCCCC)COC(=O)CCCCCC the viscosity (303.15 K, 100 kPa, x1 = 0.667) was 51.7 ± 1.8 mPa·s, the viscosity (313.15 K, 100 kPa, x1 = 0.667) was 32.6 ± 3.1 mPa·s and the viscosity (323.15 K, 100 kPa, x1 = 0.667) was 20.7 ± 2 mPa·s.
Work on `CC(C)(C)C1CCCCC1` + CCCCCCCCCCCC yielded a viscosity (293.15 K, 102 kPa, x1 = 0.1003) of 1.5 ± 0.02 mPa·s, a viscosity (293.15 K, 102 kPa, x1 = 0.2004) of 1.5 ± 0.02 mPa·s and a viscosity (293.15 K, 102 kPa, x1 = 0.3011) of 1.5 ± 0.02 mPa·s. It also gave a viscosity (293.15 K, 102 kPa, x1 = 0.4005) of 1.51 ± 0.02 mPa·s, a viscosity (293.15 K, 102 kPa, x1 = 0.5001) of 1.53 ± 0.02 mPa·s and a viscosity (293.15 K, 102 kPa, x1 = 0.601) of 1.54 ± 0.02 mPa·s. It also gave a viscosity (293.15 K, 102 kPa, x1 = 0.7001) of 1.57 ± 0.02 mPa·s, a viscosity (293.15 K, 102 kPa, x1 = 0.8003) of 1.6 ± 0.02 mPa·s and a viscosity (293.15 K, 102 kPa, x1 = 0.8991) of 1.64 ± 0.02 mPa·s. The viscosity (303.15 K, 102 kPa, x1 = 0.1003) was 1.26 ± 0.02 mPa·s, the viscosity (303.15 K, 102 kPa, x1 = 0.2004) was 1.26 ± 0.02 mPa·s and the viscosity (303.15 K, 102 kPa, x1 = 0.3011) was 1.27 ± 0.02 mPa·s. For the same compound, the viscosity (303.15 K, 102 kPa, x1 = 0.4005) was 1.27 ± 0.02 mPa·s, the viscosity (303.15 K, 102 kPa, x1 = 0.5001) was 1.28 ± 0.02 mPa·s and the viscosity (303.15 K, 102 kPa, x1 = 0.601) was 1.3 ± 0.02 mPa·s. For the same compound, the viscosity (303.15 K, 102 kPa, x1 = 0.7001) was 1.32 ± 0.02 mPa·s, the viscosity (303.15 K, 102 kPa, x1 = 0.8003) was 1.34 ± 0.02 mPa·s and the viscosity (303.15 K, 102 kPa, x1 = 0.8991) was 1.38 ± 0.02 mPa·s. For the same compound, the viscosity (313.15 K, 102 kPa, x1 = 0.1003) was 1.07 ± 0.02 mPa·s, the viscosity (313.15 K, 102 kPa, x1 = 0.2004) was 1.07 ± 0.02 mPa·s and the viscosity (313.15 K, 102 kPa, x1 = 0.3011) was 1.08 ± 0.02 mPa·s. For the same compound, the viscosity (313.15 K, 102 kPa, x1 = 0.4005) was 1.09 ± 0.02 mPa·s, the viscosity (313.15 K, 102 kPa, x1 = 0.5001) was 1.09 ± 0.02 mPa·s and the viscosity (313.15 K, 102 kPa, x1 = 0.601) was 1.11 ± 0.02 mPa·s. It also gave a viscosity (313.15 K, 102 kPa, x1 = 0.7001) of 1.13 ± 0.02 mPa·s, a viscosity (313.15 K, 102 kPa, x1 = 0.8003) of 1.15 ± 0.02 mPa·s and a viscosity (313.15 K, 102 kPa, x1 = 0.8991) of 1.17 ± 0.02 mPa·s. It also gave a viscosity (323.15 K, 102 kPa, x1 = 0.1003) of 0.92 ± 0.02 mPa·s, a viscosity (323.15 K, 102 kPa, x1 = 0.2004) of 0.925 ± 0.021 mPa·s and a viscosity (323.15 K, 102 kPa, x1 = 0.3011) of 0.933 ± 0.021 mPa·s. It also gave a viscosity (323.15 K, 102 kPa, x1 = 0.4005) of 0.939 ± 0.021 mPa·s, a viscosity (323.15 K, 102 kPa, x1 = 0.5001) of 0.946 ± 0.021 mPa·s and a viscosity (323.15 K, 102 kPa, x1 = 0.601) of 0.958 ± 0.021 mPa·s. For the same compound, the viscosity (323.15 K, 102 kPa, x1 = 0.7001) was 0.975 ± 0.021 mPa·s, the viscosity (323.15 K, 102 kPa, x1 = 0.8003) was 0.992 ± 0.021 mPa·s and the viscosity (323.15 K, 102 kPa, x1 = 0.8991) was 1.01 ± 0.02 mPa·s.
